Measured values reported in patent publication US20080003438A1, “Heterocyclic siloxanes for use in biocidal coatings and materials” (Auburn University, priority 2002, published 2008).

Columns and labels:
[1] = system: spores of Aspergillus niger (ATCC # 1004); experiment: Antifungal activity of chlorinated coated surfaces; assay type: cell-based
Description: Soft and hard surfaces were treated by exposure to a solution of 3-triethoxysilylpropyl-5,5-dimethylhydantoin, prepared as described in Example 1. The soft surfaces used for detection of antifungal properties were woven textiles composed of fibers of polypropylene, cotton (cellulose), polyester, rayon, and slabs from a cellulose kitchen sponge. Hard surfaces prepared were polyvinylchloride (PVC) sheets, and porcelain and marble tiles. Challenge inocula of prepared surfaces consisted of aliquots of stock suspensions of spores of Aspergillus niger (ATCC # 1004), a black mold, harvested from cultured lawns on Potato Dextrose Agar (PDA) plates. Methods for preparation of the halogen charged surfaces and protocols for challenge were as described in Example 11. In this case recovery of Aspergillus was accomplished by the plate dilution method on PDA, and the results were expressed as log 10 reductions compared to the controls. Contact times varied from 24-72 hours, considerably longer than was allowed for other organisms because of the well established durability of black mold spores under a wide range of physical and chemical conditions.

MS2 phage = experiment: Antiviral activity of chlorinated coated surfaces, modified AATCC Method 100-1998; assay type: cell-based, MS2 virus
Description: Soft and hard surfaces were treated by exposure to a solution of 3-triethoxysilylpropyl-5,5-dimethylhydantoin, as prepared in Example 1, and then halogenated with hypochlorite bleach, prior to being exposed to a challenge inoculum of a virus (MS2 phage). […] Soft surfaces used in these experiments were swatches of woven cotton textiles, and slabs cut from a standard kitchen sponge. Hard surfaces used were porcelain and marble tiles.
For the preparation of antimicrobial textiles, fabric and sponge samples were immersed in 5% solution of 3-triethoxysilylpropyl-5,5-dimethylhydantoin and dried in a convection oven at 90° C. for two hours. Chlorination of the coated cellulose materials was accomplished by placing them in the wash chamber of a standard, household washing machine, and processing them through a normal, cold water small load cycle, with one rinse. The washing solution contained 100 mL of CLOROX ULTRA (sodium hypochlorite) per load. […] Chlorine contents were calculated and expressed as ppm Cl^+. […]
Hard surface samples were exposed to the 3-triethoxysilylpropyl-5,5-dimethylhydantoin by using a sponge soaked in the 5% solution, before transfer to a drying oven at 90° C. for two hours. […] Chlorine bound to hard surfaces was determined by iodometric/thiosulfate titration, and chlorine contents were expressed as μg Cl^+ per square cm. […]

[2] = system: Candida albicans (ATCC # 102301); experiment: Anti-yeast activity of halogen charged coated surfaces; assay type: cell-based
Description: Soft and hard surfaces were treated by exposure to solutions of 3-triethoxysilylpropyl-5,5-dimethylhydantoin prepared as described in Example 1. Challenge inocula for determination of activity directed against yeasts consisted of suspensions of Candida albicans (ATCC # 102301) harvested from PDA plates. Procedures for preparation of halogen charged surfaces, plates, and the exposure of test articles were as described in Example 11. Recovery of viable Candida was accomplished by the plate dilution method on PDA.

Structure (SMILES): CCO[Si](CCCN1C(=O)NC(C)(C)C1=O)(OCC)OCC [3-triethoxysilylpropyl-5,5-dimethylhydantoin]
- log 10 reduction in mold concentration ([1]; cotton, contact 24 hours): 8 logs
- log 10 reduction in mold concentration ([1]; marble, 72 hours after spore inoculation): 4 log
- log 10 reduction in mold concentration ([1]; porcelain, 72 hours after spore inoculation): 5 log
- log 10 reduction in mold concentration ([1]; sponge slabs, contact 24 hours): 4 log
- log 10 reduction in mold concentration ([1]; synthetic fibers (polypropylene, polyester), 72 hours of contact): 5 logs
- log 10 reduction in mold concentration ([1]; vinyl, 72 hours after spore inoculation): 4 log
- Log 10 reduction of MS2 titer (MS2 phage; cellulose substrates (textile and sponge), 24 hours of contact): approximately 4 logs
- Log 10 reduction of MS2 titer (MS2 phage; hard surfaces, contact times of as little as 6 hours): approximately 2 logs
- reduction in viable yeasts ([2]; cotton surfaces, two hours of contact): 5 logs
- reduction in viable yeasts ([2]; hard surfaces, 6 hours of contact): up to 4 logs
- reduction in viable yeasts ([2]; polyester, 24 hours): 4 logs
